One data set has as its system canine prostate. In words: In vivo dog prostate model: inhibition of phenylephrine-induced increase in urethral pressure in anesthetized dogs.
For data set [1], the target named is T1, α1A Human Adrenergic Receptor (Homo sapiens, UniProt P25100).
T1 construct: The entire coding region of α1A (1719 bp); expressed in transfected cells
T1 sequence (P25100 1-572): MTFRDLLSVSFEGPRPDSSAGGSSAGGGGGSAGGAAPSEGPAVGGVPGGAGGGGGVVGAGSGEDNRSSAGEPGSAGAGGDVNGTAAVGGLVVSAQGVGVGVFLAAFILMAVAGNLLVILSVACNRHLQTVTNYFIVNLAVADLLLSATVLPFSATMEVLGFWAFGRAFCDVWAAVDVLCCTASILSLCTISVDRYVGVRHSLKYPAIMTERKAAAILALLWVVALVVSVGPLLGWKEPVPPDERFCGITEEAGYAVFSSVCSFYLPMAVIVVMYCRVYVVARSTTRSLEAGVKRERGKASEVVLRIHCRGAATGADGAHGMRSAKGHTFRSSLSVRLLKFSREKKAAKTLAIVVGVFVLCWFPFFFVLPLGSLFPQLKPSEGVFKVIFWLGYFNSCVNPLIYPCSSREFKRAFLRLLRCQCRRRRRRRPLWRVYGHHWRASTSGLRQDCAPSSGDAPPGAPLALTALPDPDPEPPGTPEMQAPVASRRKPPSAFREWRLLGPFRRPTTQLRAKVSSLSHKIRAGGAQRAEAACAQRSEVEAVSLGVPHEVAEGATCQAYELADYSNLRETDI
The data set can be described thus: Radioligand binding, [3H]prazosin, cloned human α1A adrenergic receptor. Put shortly: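 Competition binding used membrane preparations of transfected LM(tk−) cells and the α1 antagonist [3H]prazosin at 0.5 nM, incubated 20 min at 37° C in Tris-HCl buffer, pH 7.5.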

The next data set has as its target T2, L-type calcium channel (Rattus norvegicus, UniProt P22002).
T2 construct: membrane fragments of rat cardiac muscle; from tissue; host or cells: rat cardiac muscle membranes
The data set can be described thus: Competition binding of [3H]nitrendipine to membrane fragments of rat cardiac muscle.

In data set [2] the target is T3, α1C Human Adrenergic Receptor (Homo sapiens, UniProt P35348).
T3 construct: The entire coding region of α1C (1401 bp); expressed in transfected cells
T3 sequence (P35348 1-466): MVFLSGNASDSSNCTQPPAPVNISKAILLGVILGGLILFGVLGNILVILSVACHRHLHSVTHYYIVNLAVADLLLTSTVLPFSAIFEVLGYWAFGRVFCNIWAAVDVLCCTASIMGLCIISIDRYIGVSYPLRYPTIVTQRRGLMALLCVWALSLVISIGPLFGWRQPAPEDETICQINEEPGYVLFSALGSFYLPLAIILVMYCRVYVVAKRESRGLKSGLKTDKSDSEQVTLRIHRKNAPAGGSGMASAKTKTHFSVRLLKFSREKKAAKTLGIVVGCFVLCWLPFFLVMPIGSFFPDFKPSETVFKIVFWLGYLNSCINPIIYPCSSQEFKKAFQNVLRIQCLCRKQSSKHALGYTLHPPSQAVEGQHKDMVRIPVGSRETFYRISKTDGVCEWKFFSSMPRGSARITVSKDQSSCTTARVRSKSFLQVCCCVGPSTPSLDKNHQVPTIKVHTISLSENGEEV
In words: Radioligand binding, [3H]prazosin, cloned human α1C adrenergic receptor. The procedure, abridged:
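Read-out is filter-retained [3H]prazosin (0.5 nM) bound to membranes of LM(tk−) cells stably carrying the human α1C receptor. Incubation ran 20 min at 37° C. at pH 7.5, with 10 μM phentolamine marking nonspecific binding.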

The mark [3] stands for this setting: [3H]prazosin, cloned human receptor in LM(tk-) cell membranes, SEM and n in lines below, read-out: pKi alpha-1 1a (converted).
[4] abbreviates: [3H]nitrendipine, rat cardiac muscle membranes, SEM and n in lines below, read-out: pKi Ca (converted).
Setting [5] is: cloned human receptor in LM(tk-) cell membranes, SEM and n in lines below, read-out: pKi alpha-1 1c (converted).
The mark [6] stands for this setting: cloned human receptor, LM(tk-) cell membranes, mean, read-out: PKi alpha-1 1c (converted).

The structures appear in SMILES notation. Counter-ions that a name gives are not always drawn. Like-named read-outs stand apart in the source and are kept apart here.

T2 sequence (P22002 whole entry, other chains not shown, the tested form may be a part): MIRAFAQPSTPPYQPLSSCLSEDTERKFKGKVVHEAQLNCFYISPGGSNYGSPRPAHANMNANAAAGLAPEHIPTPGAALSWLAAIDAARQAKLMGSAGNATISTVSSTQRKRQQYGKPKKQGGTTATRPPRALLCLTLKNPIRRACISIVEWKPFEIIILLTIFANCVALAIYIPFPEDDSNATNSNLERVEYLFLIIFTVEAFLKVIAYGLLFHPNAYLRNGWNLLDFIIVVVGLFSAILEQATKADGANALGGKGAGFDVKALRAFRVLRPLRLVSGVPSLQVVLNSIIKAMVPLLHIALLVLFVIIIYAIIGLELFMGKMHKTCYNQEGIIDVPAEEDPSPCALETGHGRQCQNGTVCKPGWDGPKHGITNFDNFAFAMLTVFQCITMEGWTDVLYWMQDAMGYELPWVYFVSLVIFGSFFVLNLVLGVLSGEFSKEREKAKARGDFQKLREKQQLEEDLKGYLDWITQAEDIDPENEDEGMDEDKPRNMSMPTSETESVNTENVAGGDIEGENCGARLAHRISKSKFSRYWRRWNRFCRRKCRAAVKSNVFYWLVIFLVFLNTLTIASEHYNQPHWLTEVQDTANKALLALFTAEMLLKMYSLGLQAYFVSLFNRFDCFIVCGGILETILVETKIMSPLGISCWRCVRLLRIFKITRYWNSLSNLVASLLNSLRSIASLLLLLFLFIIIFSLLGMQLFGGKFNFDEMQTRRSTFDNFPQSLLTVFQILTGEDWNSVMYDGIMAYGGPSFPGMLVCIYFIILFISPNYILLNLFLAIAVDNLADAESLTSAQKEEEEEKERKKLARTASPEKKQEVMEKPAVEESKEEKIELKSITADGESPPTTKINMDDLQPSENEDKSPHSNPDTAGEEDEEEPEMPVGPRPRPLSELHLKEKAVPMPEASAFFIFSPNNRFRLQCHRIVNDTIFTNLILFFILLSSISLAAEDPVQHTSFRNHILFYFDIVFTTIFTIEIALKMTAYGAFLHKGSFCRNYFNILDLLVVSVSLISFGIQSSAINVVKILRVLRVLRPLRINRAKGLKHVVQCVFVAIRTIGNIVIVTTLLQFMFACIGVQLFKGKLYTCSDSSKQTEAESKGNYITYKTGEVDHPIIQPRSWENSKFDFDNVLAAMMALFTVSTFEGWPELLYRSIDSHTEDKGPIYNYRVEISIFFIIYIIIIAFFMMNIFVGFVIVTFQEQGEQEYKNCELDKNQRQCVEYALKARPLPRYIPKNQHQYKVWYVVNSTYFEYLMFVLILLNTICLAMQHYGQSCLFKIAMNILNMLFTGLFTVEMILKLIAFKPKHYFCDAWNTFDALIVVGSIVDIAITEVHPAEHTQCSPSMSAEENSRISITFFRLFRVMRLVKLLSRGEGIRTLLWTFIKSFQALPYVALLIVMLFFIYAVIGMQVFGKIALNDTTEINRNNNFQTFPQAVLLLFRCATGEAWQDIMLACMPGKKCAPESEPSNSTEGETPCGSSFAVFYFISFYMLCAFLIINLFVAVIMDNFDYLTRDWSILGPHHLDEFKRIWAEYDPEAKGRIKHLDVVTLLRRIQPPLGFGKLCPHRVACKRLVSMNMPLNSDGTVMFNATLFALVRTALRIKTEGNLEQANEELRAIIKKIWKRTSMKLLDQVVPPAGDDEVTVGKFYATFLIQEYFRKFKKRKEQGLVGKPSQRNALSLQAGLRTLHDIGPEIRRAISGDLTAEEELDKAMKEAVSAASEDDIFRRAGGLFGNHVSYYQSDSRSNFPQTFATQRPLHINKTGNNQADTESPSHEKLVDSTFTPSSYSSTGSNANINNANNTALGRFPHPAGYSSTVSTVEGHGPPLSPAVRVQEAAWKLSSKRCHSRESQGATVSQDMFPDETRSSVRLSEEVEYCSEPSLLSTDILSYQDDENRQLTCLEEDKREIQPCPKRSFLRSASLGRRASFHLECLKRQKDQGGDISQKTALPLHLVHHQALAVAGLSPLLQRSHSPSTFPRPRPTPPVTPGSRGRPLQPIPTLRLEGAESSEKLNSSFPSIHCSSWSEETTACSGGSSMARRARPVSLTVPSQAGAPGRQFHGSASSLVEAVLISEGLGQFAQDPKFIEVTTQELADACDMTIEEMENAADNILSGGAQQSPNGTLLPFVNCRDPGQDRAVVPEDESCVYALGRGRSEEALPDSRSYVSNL
T2 sequence (P54290 25-944 partner limits assumed, other chains not shown): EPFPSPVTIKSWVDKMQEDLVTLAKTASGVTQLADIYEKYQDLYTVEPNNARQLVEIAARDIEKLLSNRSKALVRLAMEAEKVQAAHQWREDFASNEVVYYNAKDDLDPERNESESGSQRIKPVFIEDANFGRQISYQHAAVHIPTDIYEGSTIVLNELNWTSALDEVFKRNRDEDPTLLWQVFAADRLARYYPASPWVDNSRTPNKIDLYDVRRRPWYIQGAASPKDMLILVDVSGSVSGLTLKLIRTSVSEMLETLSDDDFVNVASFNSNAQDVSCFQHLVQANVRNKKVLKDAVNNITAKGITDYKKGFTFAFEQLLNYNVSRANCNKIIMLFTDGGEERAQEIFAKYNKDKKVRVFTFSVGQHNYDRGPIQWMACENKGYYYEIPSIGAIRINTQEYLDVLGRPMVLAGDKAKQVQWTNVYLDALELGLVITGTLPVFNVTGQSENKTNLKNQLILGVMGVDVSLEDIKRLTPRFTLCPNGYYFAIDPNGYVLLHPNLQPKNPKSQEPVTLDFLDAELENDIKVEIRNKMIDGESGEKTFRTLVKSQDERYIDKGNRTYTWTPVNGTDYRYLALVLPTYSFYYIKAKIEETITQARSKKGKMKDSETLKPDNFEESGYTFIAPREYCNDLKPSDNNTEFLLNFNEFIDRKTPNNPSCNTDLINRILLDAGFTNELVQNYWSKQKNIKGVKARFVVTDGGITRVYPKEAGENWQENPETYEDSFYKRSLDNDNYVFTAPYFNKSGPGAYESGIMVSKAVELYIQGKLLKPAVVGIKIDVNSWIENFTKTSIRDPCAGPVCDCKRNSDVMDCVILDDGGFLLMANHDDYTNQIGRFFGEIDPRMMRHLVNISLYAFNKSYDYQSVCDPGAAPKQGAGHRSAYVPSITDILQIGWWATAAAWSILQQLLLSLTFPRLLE
T2 sequence (P54290 945-1091 partner limits assumed, other chains not shown): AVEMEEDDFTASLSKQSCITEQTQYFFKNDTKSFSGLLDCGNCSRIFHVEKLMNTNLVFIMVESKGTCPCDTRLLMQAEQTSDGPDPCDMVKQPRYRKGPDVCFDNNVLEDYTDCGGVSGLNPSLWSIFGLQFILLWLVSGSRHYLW
Procedure for canine prostate: Protocol for In Vivo Evaluation of Compounds in Canine Prostate
Adult male mongrel dogs more than one year of age were chosen for the model. After induction of general anesthesia using sodium pentobarbital (25 mg/Kg i.v.), the animals were intubated and allowed to breathe spontaneously. An arterial catheter was inserted via the femoral artery to monitor blood pressure and i.v. line was inserted into the leg for fluid and drug administration. A constant saline infusion was maintained at 40 to 50 mL/h. Next, a seven cm lower abdominal incision was made one cm lateral to the penis.
The bladder, prostate and a short segment of urethra were identified and isolated, without damage to the nerves or blood vessels. A cystotomy incision was made through which the pressure catheter was inserted and positioned in the prostatic urethra. The cystotomy was not closed, but the wound edges were sutured to stop bleeding. The tip of the catheter was positioned just distal to the prostate and secured in place with an O-silk tie around the urethra. A second holding suture at the bladder neck secured the catheter in place.
Fluid, either water or saline, was pumped by a Harvard infusion pump at 0.1 mL/min through a Gould pressure transducer into the catheter. The fluid exists at a port in the catheter which is in the prostatic urethra. Occlusion of the port, by contraction of the prostate, blocks the flow and a pressure wave is created. This pressure is transmitted back through the catheter to the transducer which is attached to a Gould recorder. Squeezing the prostate gland caused an increase in urethral pressure which verified the correct position in the urethra.
The compounds were tested as follows: A dose response curve was first generated for phenylephrine alone, in doses ranging from one μg/Kg to 50 μg/Kg. The absolute rise in urethral pressure was recorded for each dose and the next dose given when the urethral pressure returned to baseline. Phenylephrine dose response curves were generated in all animals tested. Increasing doses of compounds were then given, and the phenylephrine dose response curve repeated in the prepense of each dose of the compound. No animal received more than one compound; four animals were used to test each compound. To test for tachyphylaxis, four separate dogs were challenged with repeated phenylephrine doses for six hrs, the usual length of each experiment. From the dose-effect data, the inhibition constant (Ki) and the median-effect dose (ED50) were calculated. Both the Ki and ED50 values given are calculated by using microcomputer software and an IBM-PC.

For the compound `COC(=O)C1=C(C)NC(C)=C(C(=O)NCCCN2CCC(c3ccccc3)CC2)C1c1ccc([N+](=O)[O-])cc1` (racemic) [(±)-45, (±)-1,4-Dihydro-3-methoxycarbonyl-2,6-dimethyl-4-(4-nitrophenyl)-5-{N-[3-(4-phenylpiperidin-1-yl)propyl]}carboxamidopyridine hydrochloride hemihydrate], the Ki in the data set with canine prostate (In Vivo Dog Prostate Model, phenylephrine-induced contraction, urethral pressure) is 12 nmol/kg; in data set [1] (setting [3]), 66.1 nM; on L-type calcium channel (setting [4]) it was 7410 nM; in data set [2] (setting [5]) it was 0.234 nM.
In the case of `CNC(=O)C1=C(C)NC(C)=C(C(=O)NCCCN2CCC(c3ccccc3)(c3ccccc3)CC2)C1c1ccc([N+](=O)[O-])cc1` (centres unmarked) [Example 38, 1,4-Dihydro-2,6-dimethyl-5-(N-methyl)carboxamido-4-(4-nitrophenyl)-3-{N-[3-(4,4-diphenylpiperidin-1-yl)propyl]}carboxamidopyridine], the “Urethral Pressure K i” value in the data set with canine prostate (inhibition of phenylephrine-induced increases in urethral pressure, anesthetized dogs) is on record as 8 ± 1.5 nmol/kg. Besides, the “pKi alpha-1 1a” value in data set [1] is 6.21. In addition, the Ki on L-type calcium channel (pKi Ca) is 7080 nM. Further, the “pKi alpha-1 1c” value in data set [2] (cloned human receptor in LM(tk-) cell membranes, SEM and n in lines below) was 8.50.
Broadly, the melting point is the temperature, or range, at which the solid turns liquid. Regarding `CCC1=C(C(=O)NC)C(c2ccc([N+](=O)[O-])cc2)C(C(=O)NCCCN2CCC(c3ccccc3)(c3ccccc3)CC2)=C(COCCN)N1` (centres unmarked) [Example 225, 2-((2-Aminoethyl)oxy)methyl-6-ethyl-1,4-dihydro-5-N-methylcarboxamido-4-(4-nitro)phenyl-3-(3-(N-(4,4-diphenylpiperidin-1-yl)propyl))carboxamidopyridine], the melting point was 115 °C (dec.). Further, the Ki in data set [1] (PKi alpha-1 1a) was 1620 nM. Moreover, the Ki on L-type calcium channel (PKi Ca) was 2570 nM. The Ki in data set [2] (setting [6]) is 3.98 nM.
On to `CCOC(=O)C1(c2ccccc2)CCN(CCCNC(=O)C2=C(COCCN)NC(CC)=C(C(=O)OC)C2c2ccc([N+](=O)[O-])cc2)CC1` (centres unmarked) [Example 197, 2-[(2-Aminoethoxy)methyl]-3-{N-[3-(4-ethoxycarbonyl-4-phenylpiperidin-1-yl)propyl]}carboxamido-1,4-dihydro-6-ethyl-5-methoxycarbonyl-4-(4-nitrophenyl) pyridine], for which the melting point lay in the range of 45 to 47 °C. The Ki in data set [1] (PKi alpha-1 1a) is 251 nM. For the same compound, the Ki on L-type calcium channel (PKi Ca) is 6310 nM. The Ki in data set [2] (setting [6]) is 0.55 nM.
Regarding `CCNC(=O)C1=C(CC)NC(CC)=C(C(=O)NCCCN2CCC(C(=O)OCC)(c3ccccc3)CC2)C1c1ccc([N+](=O)[O-])cc1` (centres unmarked) [Example 182, 2,6-Diethyl-1,4-dihydro-3-{N-[3-(4-ethoxycarbonyl-4-phenylpiperidin-1-yl)propyl]}carboxamido-5-(N-ethyl)carboxamido-4(4-nitrophenyl)pyridine], the melting point was 103 to 104 °C. The compound also had a Ki in data set [1] (PKi alpha-1 1a) of 3390 nM. Further, at L-type calcium channel (PKi Ca), the Ki was 355000 nM. Also, the Ki in data set [2] (setting [6]) was 2.24 nM.
`CCC1=C(C(N)=O)C(c2ccc([N+](=O)[O-])cc2)C(C(=O)NCCCN2CCC(c3ccccc3)(c3ccccc3)CC2)=C(CCCCN)N1` (centres unmarked) [Example 171, 2-(4-Aminobutyl)-5-carboxamido-6-ethyl-1,4-dihydro-4-(4-nitrophenyl)-3-{N-[3-(4,4-diphenylpiperidin-1-yl)propyl]}carboxamidopyridine] gave a melting point of 85 to 89 °C. Also, the Ki in data set [1] (PKi alpha-1 1a, [3H]prazosin, cloned human receptor, LM(tk-) cell membranes, mean) was 1050 nM. In addition, the Ki on L-type calcium channel ([3H]nitrendipine, rat cardiac muscle membranes, mean, read-out: PKi Ca (converted)) is 18600 nM. In addition, in data set [2] (PKi alpha-1 1c, cloned human receptor, LM(tk-) cell membranes, mean), the Ki is 1.74 nM.
As to `CC1=C(C(N)=O)C(c2ccc([N+](=O)[O-])cc2)C(C(=O)NCCCN2CCC(C(=O)O)(c3ccccc3)CC2)=C(C)N1` (centres unmarked) [Example 210, 5-Carboxamido-3-{N-[3-(4-carboxy-4-phenylpiperidin-1-yl)propyl]}carboxamido-1,4-dihydro-2,6-dimethyl-4-(4-nitrophenyl)pyridine], the melting point was in the range of 208 to 210 °C. The compound further showed a Ki in data set [1] (PKi alpha-1 1a) of 72400 nM. Further, the Ki on L-type calcium channel (PKi Ca) is 933 nM. Further, the Ki in data set [2] (setting [6]) is 93.3 nM.
For `CC1=C(C(N)=O)C(c2cccc([N+](=O)[O-])c2)C(C(=O)NCCCN2CCC(c3ccccc3)CC2)=C(C)N1` (centres unmarked) [Example 62], the melting point was 92 to 96 °C. Further, in data set [1] (setting [3]), the Ki is 339 nM. Moreover, the Ki at L-type calcium channel (setting [4]) was 19500 nM. In data set [2] (setting [5]), the Ki was 2.63 nM.

The values above are taken from patent publication US6608086B2, “Dihydropyridines and new uses thereof” (Synaptic Pharmaceutical Corporation, priority 1993, dated 2003).
